In US5756423A, “Method of controlling plants by inhibition of farnesyl pyrophosphate synthase” (Zeneca Limited, priority 1997, dated 1998) one finds IC50 and pest or weed control data, which are given here for 10 molecules.

Assay [1] deals with farnesyl pyrophosphate synthase in daffodil chromoplasts. Kind of assay: inhibition of farnesyl pyrophosphate synthase in daffodil chromoplasts (14C-isopentenyl pyrophosphate incorporation). In kind it is biochemical, Narcissus pseudonarcissus. The method, then: The IC50 value may be determined as follows. Daffodil chromoplasts are diluted to a volume of 500 microliters in a buffer containing 0.5M sucrose, 3 mM MgCl2, 1 mM ethylenediaminetetraacetic acid, 20 mM N-tris[hydroxymethyl]methyl-2-aminoethanesulfonic acid, […] N-[2-hydroxyethyl]-piperazine-N'-[2-ethanesulfonic acid], 5 mM L-cysteine, 10 mM sodium fluoride, and 0.1% bovine serum albumin at pH 7.7. The inhibitor to be tested may be dissolved in water other suitable solvent and then added to the reaction mixture. The assay is started by the addition of ^14 C-labeled isopentenyl pyrophosphate (52 Ci/mol) to give a final concentration in the assay of about 3 micromolar. The mixture is incubated at 30° C. with gentle agitation for a period of about 30 min. The reaction may be stopped by the addition of 0.5 mL of saturated NaCl and 2 mL of n-butanol saturated with water. After thorough mixing, the turbid suspensions are centrifuged briefly to separate the layers, and 1 mL of the bright yellow upper butanol layer is added to 10 mL of a suitable scintillation fluid which gives a single phase. The butanol soluble radioactivity is then measured in a scintillation counter.
In addition, the problem of variable quenching differences among different experiments can be essentially eliminated by determining the incorporation of radioactivity relative to controls. Each set of experiments requires two control tubes identical to the test samples except that they contain no inhibitor. One of these is quenched immediately (TO sample) and one is quenched at the end of the normal incubation period (T100 sample).
For each concentration of inhibitor examined the % residual activity is determined from the formula [formula]
Tightly closed daffodil flowers (Narcissus pseudonarcissus) were allowed to open at room temperature. […] Coronae were placed in twice their weight of isolation buffer consisting of 67 mM potassium phosphate, 0.74M sucrose, 5 mM MgCl2, and 0.2% polyvinyl-pyrrolidone at pH 7.6 and were disrupted by 30 seconds of homogenization at high speed in a Waring-type blender. The mixture was filtered through several layers of cheesecloth and 2 layers of 100 micron nylon mesh, and the resulting filtrate was centrifuged at 1000×g for 10 minutes. The pellet was discarded and supernatant was centrifuged at 22,000×g for 20 minutes. […] This solution was centrifuged at 22,000×g for 20 minutes to give orange pellets which were suspended in a buffer of 100 mM tris(hydroxymethyl)aminomethane at pH 7.6 containing 5mM MgCl2 and 2 mM dithiothreitol (1 ml per 10 coronae). This solution was frozen in liquid nitrogen and then stored at -80° C.
Thawed daffodil chromoplasts (100-150 microliters) were diluted to a final volume of 500 microliters in a buffer containing 0.5M sucrose, 3 mM MgCl2, 1 mM ethylenediaminetetraacetic acid, 10 mM N-[2-hydroxyethyl]piperazine-N^1 -[2-ethanesulfonic acid], 5 mM L-cysteine, 10 mM sodium fluoride, and 0.1% bovine serum albumin at pH 7.7. The inhibitor to be tested was dissolved in water or other suitable solvent and was added to the reaction mixture. The assay was started by the addition of ^14 C-labeled isopentenyl pyrophosphate (52 Ci/mol) to give a final concentration in the assay of about 3 micromolar. The mixture was incubated at 30° C. with gentle agitation for a period of about 30 minutes. The reaction was stopped by the addition of 0.5 mL of saturated NaCl and 2 mL of n-butanol saturated with water. After thorough mixing, the turbid suspensions were centrifuged briefly to separate the layers, and 1 mL of the bright yellow upper butanol layer was added to 10 mL of a suitable scintillation fluid which gave a single phase. The butanol soluble radioactivity was then measured in a scintillation counter. Each set of experiments required two control tubes identical to the test samples except that they contain no inhibitor.

Assay [2] has as its system morningglory (Ipomoea spp.) (IPOSS). Kind of assay: post-emergent herbicidal test, morningglory. In kind it is in vivo. Conditions: Ipomoea, post-emergence, post-emergent, 1.0 kg/ha (*), 17-21 days after application; read-out: IPOSS percent control. An excerpt: (§1) Seeds of several different weed species were planted in sandy loam soil containing only trace organic matter. Propagules were sown in individuals rows using one species per row across the width of an aluminum flat (19.5×9.5×6 cm). The grass weeds planted were green foxtail (Setaria viridis) ("SETVI"), wild oat (Avena fatua) ("AVEFA"), barnyard grass (Enchinochloa crusgalli) ("ECHCG"). Broadleaf weeds utilized were wild mustard (Brassica kaber), also known as Sinapis arvensis, ("SINAR"), velvetleaf (Abutilon theophrasti) ("ABUTH") and morningglory (Ipomoea spp.) ("IPOSS"). Additionally, yellow nutsedge (Cyperus esculentus) ("CYPES"), nutlets were sown. Seeding depths ranged from 1.0 to 1.5 cm and plant densities ranged from 3 to 25 plants per row depending on individual plant species.
(§2) The flats were placed into a greenhouse and watered overhead by sprinkling. The greenhouse environmental systems provided the plants with natural and artificial (via metal halide lamps) lighting to attain 14 hours of light per day. Day and night temperatures were maintained at 29° and 21° C. respectively. The plants were grown for 10 to 12 days (or to the appropriate growth stage) prior to compound application. Grasses were sprayed at a 3 to 4 leaf stage and broadleaves at a 1 to 2 leaf stage. Yellow nutsedge was 5 to 7 cm tall at application.
(§3) Solutions of the test compounds were prepared by weighing out 18.8 and 74.7 mg for 1 and 4 kg/ha applications respectively, of the test compound into a 60 ml wide-mouth bottle, then dissolving the compound in 14.0 ml of deionized water containing 0.5% v/v Tween 20' (polyoxyethylene sorbitan monolaurate emulsifier) as a surfactant. Additional solvents, not exceeding 2 ml (15% of spray volume), were used if needed to dissolve the compound.
(§4) The plants were sprayed inside an enclosed linear spray table with the nozzle set at 30.5 cm (12 inches) above the foliage.
(§5) Treated plants were then returned to a greenhouse and watered daily without wetting the foliage.
(§6) The degree of weed control was evaluated 17-21 days after application and recorded as percentage of control as compared to the growth of the same species in an untreated control flat of the same. Percent control is the total injury to the plants due to all factors including: inhibited emergence, stunting, malformation, chlorosis and other types of plant injury. The control ratings range from 0 to 100 percent, where 0% represents no effect with growth equal to the untreated control and where 100% represents complete kill.

In assay [3] the test system is velvetleaf (Abutilon theophrasti) (ABUTH). Kind of assay: post-emergent herbicidal test, velvetleaf. It counts as in vivo. As to conditions: Abutilon theophrasti, post-emergence, post-emergent, 1.0 kg/ha (*), 17-21 days after application; read-out: ABUTH percent control.
Source text: as §1, §2, §3, §4, §5, §6

The test system of assay [4] is wild mustard (Brassica kaber), also known as Sinapis arvensis (SINAR). Kind of assay: post-emergent herbicidal test, wild mustard. It counts as in vivo. Conditions: Brassica, post-emergence, post-emergent, 1.0 kg/ha (*), 17-21 days after application; read-out: SINAR percent control.
Source text: as §1, §2, §3, §4, §5, §6

The test system of assay [5] is barnyard grass (Enchinochloa crusgalli) (ECHCG). Kind of assay: post-emergent herbicidal test, barnyard grass. In kind it is in vivo. Conditions: Echinochloa crus-galli, post-emergence, post-emergent, 1.0 kg/ha (*), 17-21 days after application; read-out: ECHCG percent control.
Source text: as §1, §2, §3, §4, §5, §6

Assay [6] concerns yellow nutsedge (Cyperus esculentus) (CYPES). Kind of assay: post-emergent herbicidal test, yellow nutsedge. As to conditions: Cyperus, post-emergence, post-emergent, 1.0 kg/ha (*), 17-21 days after application; read-out: CYPES percent control. It counts as in vivo.
Source text: as §1, §2, §3, §4, §5, §6

Assay [7] concerns wild oat (Avena fatua) (AVEFA). Kind of assay: post-emergent herbicidal test, wild oat. In kind it is in vivo. As to conditions: Avena fatua, post-emergence; post-emergent, 1.0 kg/ha (*), 17-21 days after application; read-out: AVEFA percent control.
Source text: as §1, §2, §3, §4, §5, §6

The test system of assay [8] is green foxtail (Setaria viridis) (SETVI). Kind of assay: post-emergent herbicidal test, green foxtail. In kind it is in vivo. Conditions: Setaria viridis, post-emergence, post-emergent, 1.0 kg/ha (*), 17-21 days after application; read-out: SETVI percent control.
Source text: as §1, §2, §3, §4, §5, §6

[9] abbreviates: Table I, unit inferred, IC50 values in nM, read-out: IC50.
Where [10] appears, read: Table II, unit inferred, IC50 values in nM, read-out: IC50.

Read-outs that look alike come from different tables or passages of the source.

In general, IC50 refers to the point on the concentration scale where inhibition reaches its midpoint. Consider `O=P(O)(O)C(Cc1ccccn1)P(=O)(O)O` [2-(2,2-diphosphonic acid)ethylpyridine, reference compound], for which, in assay [1] (prior-art compounds, daffodil chromoplasts, read-out: IC50 value), the IC50 was determined as 52 nM.

As to `CCCCCCN(CCC)CC(P(=O)(O)O)P(=O)(O)O` [Compound 59], the pest or weed control at 1000 g/ha in assay [2] stood at 20%; in assay [3], 30%; in assay [4], 90%; in assay [5], 90%; in assay [6] it was 5%; in assay [7], 85%. For the same molecule, the pest or weed control at 1000 g/ha in assay [8] worked out at 95%. The IC50 in assay [1] (setting [9]) and in assay [1] (setting [10]) was 135 nM throughout.

Regarding `CCCCCN(CCC)CC(P(=O)(O)O)P(=O)(O)O` [Compound 62], the pest or weed control at 1000 g/ha in assay [2] stood at 30%; in assay [3] it was 15%; in assay [4], 85%; in assay [5], 85%; in assay [6], 10%; in assay [7] it was 100%. Besides, in assay [8], the pest or weed control at 1000 g/ha was 95%. In addition, the IC50 in assay [1] (setting [9]) and in assay [1] (setting [10]) was 186 nM each time.

In the case of `CCC(C)NCC(P(=O)(O)O)P(=O)(O)O` (stereo not shown) [Compound 48], the pest or weed control at 1000 g/ha came to 95% in assay [2]; 60% in assay [3]; 100% in assay [4]; 98% in assay [5]; 50% in assay [6]; 100% in assay [7]. The pest or weed control at 1000 g/ha in assay [8] stood at 95%. In addition, the IC50 in assay [1] (setting [9]) and in assay [1] (setting [10]) was 32 nM in each case.

As to `CCCN(CCC(=O)O)CC(P(=O)(O)O)P(=O)(O)O` [Compound 54], the pest or weed control at 1000 g/ha in assay [2] turned out to be 5%; in assay [3], 0%; in assay [4], 10%; in assay [5], 0%; in assay [6], 0%; in assay [7], 0%. For the same molecule, the pest or weed control at 1000 g/ha in assay [8] worked out at 10%. For the same molecule, the concentration for half-maximal inhibition (IC50) in assay [1] (setting [9]) and in assay [1] (setting [10]) was 479 nM each time.

Turning to `CCCN(CC(C)C)CC(P(=O)(O)O)P(=O)(O)O` [Compound 51], the pest or weed control at 1000 g/ha in assay [2] was 15%; in assay [3], 70%; in assay [4], 100%; in assay [5], 98%; in assay [6], 5%; in assay [7], 100%. In addition, the pest or weed control at 1000 g/ha in assay [8] came to 98%. In addition, the concentration for half-maximal inhibition (IC50) in assay [1] (setting [9]) and in assay [1] (setting [10]) was 91 nM in each case.

For `CCCN(C)CC(P(=O)(O)O)P(=O)(O)O` [Compound 32], the pest or weed control at 1000 g/ha in assay [2] stood at 85%; in assay [3], 75%; in assay [4], 100%; in assay [5] it was 95%; in assay [6], 25%; in assay [7], 100%. Moreover, the pest or weed control at 1000 g/ha in assay [8] was determined as 100%. The IC50 in assay [1] (setting [9]) and in assay [1] (setting [10]) was 27 nM throughout.

Consider `O=P(O)(O)C(CN1CCCC1)P(=O)(O)O` [Compound 4], for which the pest or weed control at 1000 g/ha in assay [2] stood at 20%; in assay [3], 20%; in assay [4], 100%; in assay [5], 90%; in assay [6], 5%; in assay [7], 60%. For the same molecule, the pest or weed control at 1000 g/ha in assay [8] was determined as 100%. Moreover, the IC50 in assay [1] (setting [10]) came out at 38 nM.

Consider `O=P(O)(O)C(CN[C@@H]1C[C@H]1c1ccccc1)P(=O)(O)O` (relative stereo) [Compound 63], for which the pest or weed control at 1000 g/ha in assay [2] stood at 5%; in assay [3], 20%; in assay [4] it was 10%; in assay [5], 5%; in assay [6] it was 0%; in assay [7], 0%. For the same molecule, the pest or weed control at 1000 g/ha in assay [8] is 10%. Further, the IC50 in assay [1] (setting [9]) and in assay [1] (setting [10]) was 2090 nM each time.

Regarding `O=P(O)(O)C(Cn1ccnc1)P(=O)(O)O` [Compound 64], the pest or weed control at 1000 g/ha was found to be 100% in assay [2]; 75% in assay [3]; 100% in assay [4]; 98% in assay [5]; 30% in assay [6]; 100% in assay [7]. Moreover, the pest or weed control at 1000 g/ha in assay [8] came to 100%.
